Tests used:
SREBP-1 = assay: Liver gene expression in HFD animals: SREBP-1; type: in vivo, mice; settings: data not shown
Description: (§1) To understand the mechanisms through which Humanin decreases liver lipid content, representative genes involved in lipid synthesis (SREBP-1, FAS), lipid oxidation (CPT1b) and lipid packaging and export from liver were studied. […] The role of MTTP was confirmed by studying enzyme activity.

FAS = assay: Liver gene expression in HFD animals: FAS; type: in vivo, mice; settings: data not shown
Description: as §1

CPT1b = assay: Liver gene expression in HFD animals: CPT1b; type: in vivo, mice; settings: data not shown
Description: as §1

[1] = High fat diet (60% fat) for one month with daily injections of HNG: food intake, body weight, visceral fat, liver fat, serum lipids; type: in vivo, mice; settings: HNG 2 mg/kg daily
Protocol: (§2) The effect of humanin analog, HNG, on hepatic lipid fluxes was investigated. In the acute study, HNG was infused into third ventricle (ICV) of awake, unstressed and chronically catheterized Sprague-Dawley rats and C57BLK6 mice and studied plasma triglyceride (TG) levels following an injection of Tyloxapol (Triton WR1339, Sigma-Aldrich Corp, St. Louis, Mo.), an inhibitor of TG clearance. Groups of animals were also challenged with high fat diet (HFD) of 60% fat for one month and were treated with either daily injections of saline or of HNG (2 mg/kg). Body weight and Food intake were monitored twice a week. At the end of one month, liver fat was assessed both by histology and estimation of tissue triglycerides and plasma was collected. Total amount of visceral fat (VF) was determined and the specific depots were meticulously dissected and weighed. Tissue samples were snap-frozen for subsequent analysis.
Chronic effects of Humanin on liver lipid content: Groups of animals were challenged with high fat diet (HFD-60% fat) for one month and were treated with either daily injections of saline or HNG (2 mg/kg). At the end of one month, liver fat were assessed both by histology and estimation of tissue triglycerides.

Apo B = assay: Liver gene expression in HFD animals: Apo B; type: in vivo, mice; settings: livers of HFD animals, HNG 2 mg/kg daily
Description: as §1

MTTP = MTTP enzyme activity in liver of HFD animals (Roar Biomedical); type: in vivo, mice; settings: HNG 2 mg/kg daily, p<0.01
Description: as §1

[2] = test system: triglyceride secretion from liver; assay: Acute ICV infusion of HNG with tyloxapol injection, plasma TG levels, mice; design: species or system C57BLK6 mice; settings: mouse, in vivo
Protocol: as §2
(§3) With infusion of tyloxapol, there was a steady increase in plasma triglyceride levels in both groups from inhibition of TG clearance. […] The rate of TG secretion was calculated in the animals based on plasma triglyceride levels at 0 and 120 min time points using the following equation: secretion rate of TG/hr mg/min=(TG at 120 min−TG at 0 min)/number of hours.

[3] = test system: triglyceride secretion from liver; assay: Acute ICV infusion of HNG with tyloxapol injection, plasma TG levels, rats; type: in vivo, Sprague-Dawley rats
Protocol: as §2
Acute effects of Humanin on liver fluxes: The effect of HN was studied in acute and chronic treatment models. […]
as §3

[4] = test system: Microsomal triglyceride transport protein (MTTP); assay: Liver gene expression in HFD animals: MTTP; type: in vivo, mice; settings: livers of HFD animals, HNG 2 mg/kg daily
Description: as §1

## MAPRGFSCLLLLTSEIDLPVKRRA (HOMO SAPIENS) [HN, humanin peptide]
SREBP-1
  expression of SREBP-1 vs control: no differences
FAS
  expression of FAS vs control: no differences
CPT1b
  expression of CPT1b vs control: no differences

## MAPRGFSCLLLLTGEIDLPVKRRA (ANALOG OF HUMAN HUMANIN PEPTIDE) [HNG]
[1]; HFD for 4 weeks
  visceral fat (VF) gain vs control: gained significantly less VF
  weight gain vs control: gained significantly less weight
[1]; HFD one month, p<0.05 vs control 70.83±3.74
  liver fat (hepatic triglyceride content): 59.78±2.24 μg/mg of tissue
Apo B
  expression of Apo B vs control: significantly higher
MTTP
  MTTP activity vs control: significantly higher
[2]
  triglyceride secretion from liver: increases
[3]; 120 min after tyloxapol 600 mg/kg, p<0.05 vs aCSF 4.33±0.33
  serum TG levels at 120 min: 5.5 ± 0.29 mg/mL
[3]; (TG at 120 min − TG at 0 min)/number of hours, p<0.05 vs aCSF 2.23±0.16
  rate of TG secretion: 2.7 ± 0.2 mg/mL/h
[4]
  expression of MTTP vs control: significantly higher

— US20130109635A1, “Humanin Decreases Liver Fat and Visceral Fat Accumulation” (priority 2011, published 2013)
